In ChEMBL document CHEMBL1135151, “Preparation, characterization, molecular modeling and in vitro activity of paclitaxel-cyclodextrin complexes” (2002):

What was measured:
Format in all cases: functional, Homo sapiens
[1] = system: DU-145; test: Tested for in vitro activity against DU 145 cells at PTX dilution factor 1:500, expressed as percentage of cellular survival as a function of drug dilution
[2] = system: DU-145; test: Tested for in vitro activity against DU 145 cells at PTX dilution factor 1:50, expressed as percentage of cellular survival as a function of drug dilution
[3] = system: DU-145; test: Tested for in vitro activity against DU 145 cells at PTX dilution factor 1:1000, expressed as percentage of cellular survival as a function of drug dilution
[4] = system: DU-145; test: Tested for in vitro activity against DU 145 cells at PTX dilution factor 1:100, expressed as percentage of cellular survival as a function of drug dilution

SMILES | Survival [1] [%] | Survival [2] [%] | Survival [3] [%] | Survival [4] [%]
COCC1O[C@H]2OC3C(COC)O[C@@H](OC4C(COC)O[C@@H](OC5C(COC)O[C@@H](OC6C(COC)O[C@@H](OC7C(COC)O[C@@H](OC8C(COC)O[C@@H](OC1[C@@H](O)[C@@H]2OC)[C@@H](OC)[C@H]8O)[C@@H](OC)[C@H]7O)[C@@H](O)[C@H]6OC)[C@@H](OC)[C@H]5O)[C@@H](OC)[C@H]4O)[C@@H](OC)[C@H]3O (stereo partly drawn) | 90.2 | 88.9 | 91.5 | 90.6
CC(=O)O[C@H]1C(=O)[C@@]2(C)C([C@H](OC(=O)c3ccccc3)[C@]3(O)C[C@H](OC(=O)[C@H](O)[C@@H](NC(=O)c4ccccc4)c4ccccc4)C(C)=C1C3(C)C)[C@]1(OC(C)=O)CO[C@@H]1C[C@@H]2O.OCC1O[C@H]2OC3C(CO)O[C@@H](OC4C(CO)O[C@@H](OC5C(CO)O[C@@H](OC6C(CO)O[C@@H](OC7C(CO)O[C@@H](OC8C(CO)O[C@@H](OC1[C@@H](O)[C@@H]2O)[C@@H](O)[C@H]8O)[C@@H](O)[C@H]7O)[C@@H](O)[C@H]6O)[C@@H](O)[C@H]5O)[C@@H](O)[C@H]4O)[C@@H](O)[C@H]3O (stereo partly drawn) | 23.1 | 12.2 | 24.2 | 22.3
CC(=O)O[C@H]1C(=O)[C@@]2(C)C([C@H](OC(=O)c3ccccc3)[C@]3(O)C[C@H](OC(=O)[C@H](O)[C@@H](NC(=O)c4ccccc4)c4ccccc4)C(C)=C1C3(C)C)[C@]1(OC(C)=O)CO[C@@H]1C[C@@H]2O.COCC1O[C@H]2OC3C(COC)O[C@@H](OC4C(COC)O[C@@H](OC5C(COC)O[C@@H](OC6C(COC)O[C@@H](OC7C(COC)O[C@@H](OC8C(COC)O[C@@H](OC1[C@@H](OC)[C@@H]2OC)[C@@H](OC)[C@H]8OC)[C@@H](OC)[C@H]7OC)[C@@H](OC)[C@H]6OC)[C@@H](OC)[C@H]5OC)[C@@H](OC)[C@H]4OC)[C@@H](OC)[C@H]3OC (stereo partly drawn) | 68.7 | 43.2 | 69.3 | 61.3
COCC1O[C@H]2OC3C(COC)O[C@@H](OC4C(COC)O[C@@H](OC5C(COC)O[C@@H](OC6C(COC)O[C@@H](OC7C(COC)O[C@@H](OC8C(COC)O[C@@H](OC1[C@@H](OC)[C@@H]2OC)[C@@H](OC)[C@H]8OC)[C@@H](OC)[C@H]7OC)[C@@H](OC)[C@H]6OC)[C@@H](OC)[C@H]5OC)[C@@H](OC)[C@H]4OC)[C@@H](OC)[C@H]3OC (stereo partly drawn) | 87 | 79.7 | 90.1 | 85.5
CC(=O)O[C@H]1C(=O)[C@@]2(C)C([C@H](OC(=O)c3ccccc3)[C@]3(O)C[C@H](OC(=O)[C@H](O)[C@@H](NC(=O)c4ccccc4)c4ccccc4)C(C)=C1C3(C)C)[C@]1(OC(C)=O)CO[C@@H]1C[C@@H]2O.COCC1O[C@H]2OC3C(COC)O[C@@H](OC4C(COC)O[C@@H](OC5C(COC)O[C@@H](OC6C(COC)O[C@@H](OC7C(COC)O[C@@H](OC8C(COC)O[C@@H](OC1[C@@H](O)[C@@H]2OC)[C@@H](OC)[C@H]8O)[C@@H](OC)[C@H]7O)[C@@H](O)[C@H]6OC)[C@@H](OC)[C@H]5O)[C@@H](OC)[C@H]4O)[C@@H](OC)[C@H]3O (stereo partly drawn) | 51.1 | 35.2 | 61.3 | 46.3
OC[C@H]1O[C@@H]2O[C@H]3[C@H](O)[C@@H](O)[C@@H](O[C@H]4[C@H](O)[C@@H](O)[C@@H](O[C@H]5[C@H](O)[C@@H](O)[C@@H](O[C@H]6[C@H](O)[C@@H](O)[C@@H](O[C@H]7[C@H](O)[C@@H](O)[C@@H](O[C@H]8[C@H](O)[C@@H](O)[C@@H](O[C@H]1[C@H](O)[C@H]2O)O[C@@H]8CO)O[C@@H]7CO)O[C@@H]6CO)O[C@@H]5CO)O[C@@H]4CO)O[C@@H]3CO [BETADEX] | 96.4 | 96.4 | 96.8 | 96.6
CC(=O)O[C@H]1C(=O)[C@@]2(C)[C@H]([C@H](OC(=O)c3ccccc3)[C@]3(O)C[C@H](OC(=O)[C@H](O)[C@@H](NC(=O)c4ccccc4)c4ccccc4)C(C)=C1C3(C)C)[C@]1(OC(C)=O)CO[C@@H]1C[C@@H]2O [PACLITAXEL] | 43.3 | 11.6 | 46 | 12.1
